SMILES strings stand for the structures.

Experimental findings from patent publication US6096788A, “Antimalaria and antibabesiosis agents and pharmaceutical compositions containing such agents” (priority 1996, dated 2000) are described below.

Series [1] deals with Babesia bovis, Babesia canis. Kind of series: In vitro antibabesia activity, (3H) hypoxanthine incorporation. The class given is cell-based. The note with it: score from ED50 of (3H) hypoxanthine incorporation. From the text:
The screening process for antimalaria activity, based on parasite incorporation of (^3 H) hypoxanthine was used to test the antimetabolic activity of such components against Babesia bovis, Babesia canis. A tight relationship was found between the rate of (^3 H) hypoxanthine incorporation using standard measurements and the percentage of parasitized cells determined by microscopy. […] The score was ++ for the same activity at a concentration of 0.01 to 0.1 micromoles and finally + for a concentration under or equal to 1 micromole.

The test system of series [2] is Plasmodium vinckei, petterei or chabaudi. The experiment in a line: Therapeutic index in infected mice (antimalaria activity compared with semi-chronic toxicity). The class given is in vivo. The settings on record: i.p. or s.c., twice a day for four days, ratio of activity over toxicity (LD50). On the procedure: (§1) In order to evaluate the therapeutic index of the different products, the activity of these products was tested in vivo and compared with […] toxicity in animals. This activity was measured using the test described by PETERS W. (Chemotherapy and Drug resistance in Malaria, 1970). A compound was administered for four consecutive days to mice previously infected with Plasmodium vinckei, petterei or chabaudi. The said compound was dissolved in a 0.9% NaCl solution. The preparations were thus administered intraperitoneally or subcutaneously in male Swiss mice infected by intravenous injection of Plasmodium petterei or Plasmodium chadaudi (10^6 infected cells). The compound was administered twice a day for four consecutive days, the first injection being performed two hours after the infestation and the second, 10 hours later. The parasitemia was determined on blood smears the day after the end of treatment. Toxicity was measured in vivo following the same schedule, the animals having received, under the same administration conditions as above, two injections per day for four days (semi-chronic toxicity). The results are expressed in lethal dose 50 (LD50), i.e. the dose causing death in 50% of the animals.
(§2) The results of these trials are summarized in Table I, below, and expressed as therapeutic index, or the ratio of activity over toxicity measured under the identical conditions described above.

Series [3] relates to P. falciparum (FVO isolate). Kind of series: Antimalaria activity of G25 in Aotus lemurinus monkey infected by P. falciparum FVO isolate. The class given is in vivo. The text has this:
Besides chimpanzees, only two South American monkey species, Aotus and Saimiri seirius, can be infected by P. falciparum. Currently, infection of Aotus monkeys with the human parasite is the best, and quasi-unique, model for evaluating therapeutic or vaccinal interventions against malaria (Collins W. E., Gallaud C. G., Sullivan J. S., and Morris C. L., "Selections of different strains of Plasmodium falciparum for testing blood stages in Aotus nancymal monkeys" An. J. Trop. Med. Hyg., 1994, 51 (2) 224-232).
The antimalaria activity was thus evaluated in the Aotus lemurinus monkey infected by the FVO (falciparum Vietnam Oaknoll) isolate of P. falciparum. This isolate is chloroquine-resistant and inevitably lethal for Aotus monkeys at the "Fundacion Centro de Primates" at the University del Valle, Cali, Colombia.
Treatment with G25 (dissolved in 0.9% NaCl) was initiated when the parasitemia reached 5.6%; 16 doses (0.2 mg/kg b.i.d. for 8 days) were given. […] The parasitemia in a monkey treated by combination sulfadoxine/pyrimethamine (FANSIDAR) is given for comparison.
In all, 15 monkeys were infected, then treated with G25 given by intramuscular injections at doses ranging from 0.010 to 0.2 mg/kg.

Series [4] is described as follows: Maximal tolerable dose and therapeutic index in the monkey. The settings on record: in vivo.
Series [5] is described as follows: Therapeutic index in infected mice (antimalaria activity compared with semi-chronic toxicity). The format is in vivo. The settings on record: mouse, in vivo, i.p. or s.c., twice a day for four days, ratio of activity over toxicity (LD50). On the procedure:
as §1, §2

In the case of `CCC[N+](CCC)(CCC)CCCCCCCCCCCCCCCC[N+](CCC)(CCC)CCC.[Br-].[Br-]` [EXAMPLE 9, N,N,N,N',N',N'-hexapropyl-1,16-hexadecanediaminium dibromide], the “Antibabesia activity at 10 millimoles” value in series [1] is given as “+++ (a 50% inhibition of (^3 H) hypoxanthine incorporation (ED50), these molecules having a concentration less than or equal to 0.01 micromoles)”. For the same compound, in series [2], the Therapeutic index was 36.

Take `CCC[N+](CCC)(CCC)CCCCCCCCCCCCCCCC[N+](CCC)(CCC)CCC.[Br-].[Br-]` [EXAMPLE 12, N,N,N,N',N',N'-hexapropyl-1,16-hexadecanediaminium dibromide]: the “Antibabesia activity at 10 millimoles” value in series [1] is given as “++ (the same activity at a concentration of 0.01 to 0.1 micromoles)”. In addition, the Therapeutic index in series [2] is listed as 11.

Consider `C[N+]1(CCCCCCCCCCCCCCCC[N+]2(C)CCCC2)CCCC1` [Example G25], for which the Decline in parasitemia result in series [3] (FVO isolate, 0.2 mg/kg b.i.d. for 8 days, treatment started at 5.6% parasitemia) was “decline in parasitemia was evident at the second dose”. Further, in series [3] (Plasmodium falciparum, in Primates, im, 4380 h, intramuscular, 6 months follow-up, read-out: Lowest dose with complete cure (validated by PCR), no recurrences), the minimal effective dose was 0.03 mg/kg. For the same compound, in series [3] (intramuscular, 0.01 mg/kg), the “Activity at 0.01 mg/kg” value was “active (parasite clearance) but did not lead to complete cure (recurrence observed)”. Further, the MTD in series [4] is ~1.5 mg/kg. Moreover, the selectivity ratio in series [4] (read-out: therapeutic index (LD50/ED50) in the monkey) is > 50.

For the compound `C[N+]1(CCCCCCCCCCCCCC[N+]2(C)CCCC2CO)CCCC1CO` (centres unmarked) [EXAMPLE 18, 1,1'-(1,14-tetradecanediyl)bis(2-hydroxymethl-1-methylpyrrolidium) dibromide], the “Antibabesia activity at 10 millimoles” value in series [1] was “+++ (a 50% inhibition of (^3 H) hypoxanthine incorporation (ED50), these molecules having a concentration less than or equal to 0.01 micromoles)”. Moreover, the Therapeutic index in series [2] was 22.

In the case of `C[N+]1(CCCCCCCCCCCCCCCC[N+]2(C)CCCC(CO)C2)CCCC(CO)C1` (centres unmarked) [EXAMPLE 20], the “Antibabesia activity at 10 millimoles” value in series [1] is “+++ (a 50% inhibition of (^3 H) hypoxanthine incorporation (ED50), these molecules having a concentration less than or equal to 0.01 micromoles)”. Besides, the Therapeutic index in series [2] was found to be 17.

With `CCC[N+](CCC)(CCO)CCCCCCCCCCCCCC[N+](CCC)(CCC)CCO.[Br-].[Br-]` [EXAMPLE 27, N,N'-di(2-hydroxyethyl)-N,N,N',N'-tetrapropyl-1,14-tetradecanediaminium dibromide], in series [1], the “Antibabesia activity at 10 millimoles” value is reported as “++ (the same activity at a concentration of 0.01 to 0.1 micromoles)”. The selectivity ratio in series [5] turned out to be 15.

With `C[N+]1(CCCCCCCCCCCCCCCC[N+]2(C)CCCC2)CCCC1` [EXAMPLE 17, 1,1'-(1,16-hexadecanediyl)bis(1-methylpyrrolidium) dibromide], the “Antibabesia activity at 10 millimoles” value in series [1] is given as “+++ (a 50% inhibition of (^3 H) hypoxanthine incorporation (ED50), these molecules having a concentration less than or equal to 0.01 micromoles)”. The selectivity ratio in series [5] was 7.

The term MTD denotes the highest dose tested that stayed within the study's limit of toxicity.
